This is an account of results in patent EP4631951A1, “SYNTHETIC VACCINES AGAINST POR[…]” (Max-Planck-Gesellschaft zur Förderung der Wissenschaften …, priority 2024, dated 2025).

SMILES strings stand for the structures. “Also recorded” adds a separate entry of the source.

For one assay, the system named is human IgG antibodies. As to the kind of experiment: Glycan microarray with human sera and saliva, IgG. The class given is binding. Conditions: for IgG antibody binding: human saliva and human serum (blood); for IgG antibody binding in saliva, compared between glycans / IgG binding in CP saliva compared with healthy (and recovered) patients: human saliva; for IgG antibody binding in saliva, compared between glycans: MFI, Figures 12 and 13. From the text: (§1) Here, human sera and saliva from P. gingivalis infected patients were used to screen antibodies against the synthetic glycan library 1-11 to determine whether LPS fragments are potential leads for vaccine development.
(§2) Samples were taken from a pool of patients at the Charit6 Zahnklinik (provided by Prof. Dr. Henrik Dommisch). The dental status of three groups of patients was defined as: healthy (20 patients, no clinical indications for CP), infected (16 patients, CP stage III or stage IV) and recovered from CP (six patients). Recovered patients were treated from CP stage III or stage IV at the Charit6 Zahnklinik by resective and regenerative surgery and execution of two to four professional dental cleanings per year.
(§3) The synthesized LPS fragments of P. gingivalis were immobilized at NHS-activated carboxyl-functionalized glass slides in triplicates (Figure 10 A, B). Additionally, a positive glycan control containing the α(1→2)-trirhamnose (5.06) was used in the assay, because most humans develop antibodies against this pathogen-associated glycan

The subject of a further assay is human IgA antibodies. Description: Glycan microarray with human sera and saliva, IgA. It is filed as binding. The conditions noted are these: human saliva and serum.
Description: as §1, §2, §3

Another assay has as its system C57BL/6NRj mice. Description: Glycan microarray analysis of antibody binding in sera of immunized mice. It is filed as in vivo. The source says:
The immunizations were approved by Landesamt für Gesundheit und Soziales Berlin, Germany (Approval ID: G 0329/18). 8 weeks old C57BL/6NRj mice (Janvier, Le Genest-Saint_Isle, France) were housed at Bundesinstitut für Risikobewertung, Berlin, Germany in groups of five animals in individually ventilated cages (Tecniplast, Hohenpeißenberg, Germany) under specific pathogen-free conditions. Housing and experiments were in accordance with institutional guidelines and with the regulations of the Federation of European Laboratory Animal Science Associations (FELASA). Mice were immunized subcutaneously (s.c.) with 1µg of glycoconjugate per injection. The glycoconjugates, together with Alum adjuvant, were diluted in sterile PBS to a final volume of 100 µL per dose. The animals were immunized on day 0 (primary immunization) and boosted on days 14, 28, and final boosting on day 196. Blood (max. 80µL) and saliva were collected every two weeks. The mice were fixed with on hand and a swap was used to collect the saliva and was afterwards centrifuged at 400 g for 5 min. After coagulation at room temperature, serum was separated by centrifugation at 2,000 g for 10 min. The sera and saliva were frozen at -20°C until further usage. [drawing 126]
Synthetic polysaccharides containing an amine linker as well as protein controls were immobilized on glass microarray slides. The slides were then quenched, blocked with 1% BSA-PBS, and stored at 4°C until use. […]
Slides were incubated for 1 hour at 37 °C in a humidification chamber, washed three times with PBST, rinsed with deionized water, and dried by centrifugation. Fluorescence signals were measured with a Genepix 4300A device (Molecular Devices, Sunnyvale, CA, USA).
The photomultiplier tube (PMT) voltage was adjusted to avoid oversaturation of the signals. Data were analyzed using GenePix Pro 7 software (Molecular Devices, Sunnyvale, CA, USA). […]

Take `NCCCCCO[C@H]1O[C@H](CO)[C@H](O)[C@H](O)[C@H]1O` [compound 11, 5-Aminopentyl α-D-galactopyranoside]: in the assay on human IgG antibodies, the IgG antibody binding result is “show binding to IgG antibodies” and the “IgG antibody binding in saliva, compared between glycans” value is reported as “bind significantly less IgG”.

With `C[C@@H]1O[C@@H](O[C@H]2[C@H](O[C@H]3[C@H](OCCCCCN)O[C@@H](C)[C@H](O)[C@H]3O)O[C@@H](C)[C@H](O)[C@H]2O)[C@H](O)[C@H](O)[C@H]1O` [5.06, 5-Aminopentyl-a-(1→2)-L-trirhamnopyranoside, reference compound], the “IgG antibodies in saliva” value with human IgG antibodies (healthy individuals compared with CP and recovered CP patients) is “also observed in healthy individuals, but significantly less than in chronical periodontitis patients and recovered chronical periodontitis patients”. Moreover, the IgG antibody binding entry with human IgG antibodies is listed as “showed IgG antibody binding”. In addition, in the assay with human IgA antibodies, the IgA antibody binding result is reported as “significant binding of IgA”.

As to `CC(=O)N[C@H]1[C@H](O[C@H]2[C@@H](O)[C@@H](CO)O[C@H](OC[C@H]3O[C@H](O[C@@H]4[C@@H](O)[C@@H](O)[C@H](OCCCCCN)O[C@H]4C)[C@H](O)[C@@H](O)[C@@H]3O)[C@@H]2O)O[C@H](CO)[C@H](O)[C@@H]1O` [compound 4, 5-Aminopentyl-2-acetamido-2-deoxy-β-D-galactopyranosyl-(1→3)-α-D-galactopyranosyl-(1→6)-α-D-glucopyranosyl-(1→4)-α-L-rhamnopyranoside], in the assay on human IgG antibodies, the IgG antibody binding result was “showed IgG antibody binding” and the “IgG antibody binding in saliva, compared between glycans” value was “higher IgG antibody binding than 5 tetrasaccharide”.

As to `CC(=O)N[C@H]1[C@H](OCCCCCN)O[C@H](CO)[C@H](O)[C@@H]1O[C@@H]1O[C@@H](C)[C@H](O[C@H]2O[C@H](CO[C@H]3O[C@H](CO)[C@H](O)[C@H](O)[C@H]3O)[C@@H](O)[C@H](O)[C@H]2O)[C@@H](O)[C@H]1O` [compound 1, 5-Aminopentyl-α-D-galactopyranosyl-(1→6)-α-D-glucopyranosyl-(1→4)-α-L-rhamnopyranosyl-(1→3)-2-acetamido-2-deoxy-B-D-galactopyranoside], in the assay on human IgG antibodies, the “IgG binding in CP saliva compared with healthy (and recovered) patients” value was “significantly higher than in dental healthy patients” and the “IgG antibody binding in saliva, compared between glycans” value is recorded as “strongest IgG interaction observed in these studies; also recorded: highest amount of bound IgG antibodies in this study”. Also, the “IgG in serum of patients infected with P. gingivalis” value with human IgG antibodies (human serum) was “binds”. Besides, in the assay on C57BL/6NRj mice (course of the experiment, response against the named glycan), the IgM-responses result is “remained at low levels”.

Regarding `CC(=O)N[C@H]1[C@H](O[C@H]2[C@@H](O)[C@@H](CO)O[C@H](OC[C@H]3O[C@H](OCCCCCN)[C@H](O)[C@@H](O)[C@@H]3O)[C@@H]2O)O[C@H](CO)[C@H](O)[C@@H]1O[C@@H]1O[C@@H](C)[C@H](O)[C@@H](O)[C@H]1O` [compound 5, 5-Aminopentyl-α-L-rhamnopyranosyl-(1→3)-2-acetamido-2-deoxy-β-D-galactopyranosyl-(1→3)-α-D-galactopyranosyl-(1→6)-α-D-glucopyranoside], in the assay on human IgG antibodies, the IgG antibody binding entry was “showed IgG antibody binding; also recorded: show binding to IgG antibodies”.

On to `CC(=O)N[C@H]1[C@H](O[C@H]2[C@@H](O)[C@@H](CO)O[C@H](OCCCCCN)[C@@H]2O)O[C@H](CO)[C@H](O)[C@@H]1O[C@@H]1O[C@@H](C)[C@H](O)[C@@H](O)[C@H]1O` [compound 2, 5-Aminopentyl-α-L-rhamnopyranosyl-(1→3)-2-acetamido-2-deoxy-β-D-galactopyranosyl-(1→3)-α-D-galactopyranoside], for which, in the assay on human IgG antibodies, the “IgG binding in CP saliva compared with healthy (and recovered) patients” value was “stronger IgG binding observed for CP patients”; the IgG antibody binding result is given as “show binding to IgG antibodies”; the “IgG antibody binding in saliva, compared between glycans” value was “higher amount of IgG antibody binding than to rhamnose monomer 9”. Besides, the IgM levels entry in the assay on C57BL/6NRj mice (day 28, response against the named glycan) is recorded as “relatively high”. Further, in the assay with C57BL/6NRj mice (response against the named glycan in mice immunized with its CRM197 conjugate (text names only the glycan)), the IgM response peaked was 14 days.

Regarding `NCCCCCO[C@H]1O[C@H](CO[C@H]2O[C@H](CO)[C@H](O)[C@H](O)[C@H]2O)[C@@H](O)[C@H](O)[C@H]1O` [compound 7], in the assay on human IgG antibodies, the IgG antibody binding entry was “showed IgG antibody binding; also recorded: show binding to IgG antibodies” and the “IgG antibody binding in saliva, compared between glycans” value is listed as “bind significantly less IgG”. Besides, the IgA antibody binding entry in the assay with human IgA antibodies is on record as “significant binding of IgA”.

In the case of `CC(=O)N[C@H]1[C@H](O[C@H]2[C@@H](O)[C@@H](CO)O[C@H](OCCCCCN)[C@@H]2O)O[C@H](CO)[C@H](O)[C@@H]1O[C@@H]1O[C@@H](C)[C@H](O[C@H]2O[C@H](CO)[C@@H](O)[C@H](O)[C@H]2O)[C@@H](O)[C@H]1O` [compound 3, 5-Amino-pentyl α-D-glucopyranosyl-(1→4)-α-L-rhamnopyranosyl-(1→3)-2-acetamido-2-deoxy-β-D-galactopyranosyl-(1→3)-α-D-galactopyranoside], in the assay on human IgG antibodies, the IgG antibody binding entry is “showed IgG antibody binding; also recorded: show binding to IgG antibodies”.
